These molecules were tested against human orexin 2 receptor (Homo sapiens (Human), UniProt O43614) (assay: Human orexin 2 receptor radioligand binding ([3H]-EMPA competition)). Conditions: HEK293 stably expressing human orexin 2 receptor; 2 nM [3H]-EMPA; averages of 2-20 runs; read-out: hOX2 Ki.
Method: The in vitro affinity of the compounds of the invention for the rat/human orexin 1 and human orexin 2 receptors was determined by competitive radioligand binding using [^3H](1-(5-(2-fluoro-phenyl)-2-methyl-thiazol-4-yl)-1-((S)-2-(5-phenyl-(1,3,4)oxadiazol-2-ylmethyl)-pyrrolidin-1-yl)-methanone) (Langmead et al., 2004) and [^3H]EMPA (n-ethyl-2[96-methoxy-pyridin-3-yl)-(toluene-2-sulfonyl)-amino]-N-pyridin-3-ylmethyl acetamide), respectively (Langmead et al., 2004, British Journal of Pharmacology 141:340-346; Malherbe et al., 2004, British Journal of Pharmacology 156:1326-41).
Data are analyzed using pc-Sandy macro and graphed on Graphpad Prism 5. For analysis, each concentration point is averaged from triplicate values and the averaged values are plotted on Graphpad Prism. The IC50 was determined by applying the following equation (GraphPad Prism 5.0, San Diego) for one site competition where X=log (concentration) and Y=specific binding. Top denotes the total [^3H]— (1-(5-(2-fluoro-phenyl)-2-methyl-thiazol-4-yl)-1-((S)-2-(5-phenyl-(1,3,4)oxadiazol-2-ylmethyl)-pyrrolidin-1-yl)-methanone) binding, bottom denotes the nonspecific [^3H]— (1-(5-(2-fluoro-phenyl)-2-methyl-thiazol-4-yl)-1-((S)-2-(5-phenyl-(1,3,4)oxadiazol-2-ylmethyl)-pyrrolidin-1-yl)-methanone) binding. Graphpad Prism calculates Ki value from IC50 and the pre-determined Kd values for [^3H]— (1-(5-(2-fluoro-phenyl)-2-methyl-thiazol-4-yl)-1-((S)-2-(5-phenyl-(1,3,4)oxadiazol-2-ylmethyl)-pyrrolidin-1-yl)-methanone) and [^3H]-EMPA. The Ki for each compound is then uploaded into 3DX. Each run comprises individual compounds in triplicate. The data in Table 1 and Table 2 represent averages from between 2-20 runs
Human Orexin 2 Receptor Radioligand Binding Studies
HEK293 stably expressing human orexin 2 receptor (Genebank accession number NM_001526) were grown to confluency in DMEM (Hyclone, cat # SH30022), 10% FBS, 1× Pen/Strep, 1× NaPyruvate, 10 mM HEPES, 600 μg/ml G418 media on 150 cm^2 tissue culture plates, washed with 5 mM EDTA in PBS (HyClone Dulbecco's Phosphate Buffered Saline 1× with Calcium and Magnesium, Cat # SH30264.01, hereafter referred to simply as PBS) and scraped into 50 ml tubes. After centrifugation (2K×G, 5 min at 4° C.), the supernatant was aspirated and the pellets frozen and stored at −80° C. Cells were resuspended in PBS in the presence of 1 tablet of protease inhibitor cocktail (Roche, Cat. #11836145001) per 50 mL. […] Compounds were solubilized in 100% DMSO (Acros Organics, Cat. #61042-1000) and tested over a range of 7 concentration (from 0.1 nM to 10 μM). The final concentration of DMSO in the reactions is equal to or less than 0.1%. Total and nonspecific binding was determined in the absence and presence of 10 μM almorexant. The total volume of each reaction is 200 μL (20 μL of diluted compounds, 80 μL of [^3H]-EMPA diluted in PBS and 100 μL of the cell suspension). Reactions were run for 60 min at room temperature and terminated by filtration through GF/C filter plates (PerkinElmer, Cat. #6005174) presoaked in 0.3% polyethylenimine using the cell harvester (PerkinElmer Filtermate). The plates were washed 3 times by aspirating 30 ml PBS through the plates. Plates were dried in 55° C. oven for 60 min, scintillation fluid was added, and the radioactivity was counted on a Topcount (Packard).

Chain of human orexin 2 receptor (O43614 whole entry): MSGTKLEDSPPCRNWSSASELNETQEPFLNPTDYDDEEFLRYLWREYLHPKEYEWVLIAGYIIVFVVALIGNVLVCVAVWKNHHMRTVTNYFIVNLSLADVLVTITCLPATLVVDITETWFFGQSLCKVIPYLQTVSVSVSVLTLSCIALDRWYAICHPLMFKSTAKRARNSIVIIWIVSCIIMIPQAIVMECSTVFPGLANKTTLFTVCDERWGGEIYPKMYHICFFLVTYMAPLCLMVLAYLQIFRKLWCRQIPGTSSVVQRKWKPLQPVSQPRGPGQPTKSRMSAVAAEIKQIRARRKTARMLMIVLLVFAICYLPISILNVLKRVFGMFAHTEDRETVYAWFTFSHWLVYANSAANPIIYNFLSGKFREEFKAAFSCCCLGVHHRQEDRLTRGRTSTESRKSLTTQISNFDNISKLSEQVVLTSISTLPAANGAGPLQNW

Compound | Ki [nM]
C[C@@H]1[C@H]2C[C@@H](Nc3ccc(C(F)(F)F)cn3)[C@H](C2)N1C(=O)c1ncccc1-n1nccn1 (relative stereo) [Example 64, (3-(2H-1,2,3-triazol-2-yl)pyridin-2-yl)((1S*,3R*,4S*,6R*)-3-methyl-6-((5-(trifluoromethyl)pyridin-2-yl)amino)-2-azabicyclo[2.2.1]heptan-2-yl)methanone] | 324
C[C@@H]1[C@H]2C[C@@H](Nc3ccc(C(F)(F)F)cn3)[C@H](C2)N1C(=O)c1cccc(F)c1-n1nccn1 (relative stereo) [Example 65, (3-fluoro-2-(2H-1,2,3-triazol-2-yl)phenyl)((1S*,3R*,4S*,6R*)-3-methyl-6-((5-(trifluoromethyl)pyridin-2-yl)amino)-2-azabicyclo[2.2.1]heptan-2-yl)methanone] | 183
Cc1ccc(-n2nccn2)c(C(=O)N2[C@H](C)[C@H]3C[C@@H](Oc4cnc5ccccc5c4)[C@@H]2C3)n1 (relative stereo) [Example 185, (6-methyl-3-(2H-1,2,3-triazol-2-yl)pyridin-2-yl)((1S*,3R*,4R*,6R*)-3-methyl-6-(quinolin-3-yloxy)-2-azabicyclo[2.2.1]heptan-2-yl)methanone] | 61
C[C@@H]1[C@H]2C[C@@H](Oc3cnc4cc(F)c(F)cc4n3)[C@H](C2)N1C(=O)c1cccc(F)c1-n1nccn1 (relative stereo) [Example 190, ((1S*,3R*,4R*,6R*)-6-((6,7-difluoroquinoxalin-2-yl)oxy)-3-methyl-2-azabicyclo[2.2.1]heptan-2-yl)(3-fluoro-2-(2H-1,2,3-triazol-2-yl)phenyl)methanone] | 123
C[C@@H]1[C@H]2C[C@@H](Oc3cnc4cc(F)c(F)cc4n3)[C@H](C2)N1C(=O)c1ccccc1-n1nccn1 (relative stereo) [Example 191, (2-(2H-1,2,3-triazol-2-yl)phenyl)((1S*,3R*,4R*,6R*)-6-((6,7-difluoroquinoxalin-2-yl)oxy)-3-methyl-2-azabicyclo[2.2.1]heptan-2-yl)methanone] | 72
CC1C2CC(Nc3cnc(C(F)(F)F)cn3)C(C2)N1C(=O)c1ccccc1-n1nccn1 (single isomer, unassigned) [Example 5A, (2-(2H-1,2,3-triazol-2-yl)phenyl)((1R*,3R*,4R*,6S*)-3-methyl-6-((5-(trifluoromethyl)pyrazin-2-yl)amino)-2-azabicyclo[2.2.1]heptan-2-yl)methanone] | > 10000
CC1C2CC(Nc3cnc(C(F)(F)F)cn3)C(C2)N1C(=O)c1ccccc1-n1nccn1 (single isomer, unassigned) [Example 5B, (2-(2H-1,2,3-triazol-2-yl)phenyl)((1S*,3S*,4S*,6R*)-3-methyl-6-((5-(trifluoromethyl)pyrazin-2-yl)amino)-2-azabicyclo[2.2.1]heptan-2-yl)methanone] | 146
CC1C2CC(Oc3ccc(C(F)(F)F)cn3)C(C2)N1C(=O)c1ccc(F)cc1-c1ncccn1 (single isomer, unassigned) [Example 17A, (4-fluoro-2-(pyrimidin-2-yl)phenyl)((1R*,3S*,4S*,6S*)-3-methyl-6-((5-(trifluoromethyl)pyridin-2-yl)oxy)-2-azabicyclo[2.2.1]heptan-2-yl)methanone] | > 10000
CC1C2CC(Oc3ccc(C(F)(F)F)cn3)C(C2)N1C(=O)c1ccc(F)cc1-c1ncccn1 (single isomer, unassigned) [Example 17B, (4-fluoro-2-(pyrimidin-2-yl)phenyl)((1S*,3R*,4R*,6R*)-3-methyl-6-((5-(trifluoromethyl)pyridin-2-yl)oxy)-2-azabicyclo[2.2.1]heptan-2-yl)methanone] | 947
CC1C2CC(Oc3ccc(C(F)(F)F)cn3)C(C2)N1C(=O)c1cc(F)ccc1-c1ncccn1 (single isomer, unassigned) [Example 18B, (5-fluoro-2-(pyrimidin-2-yl)phenyl)((1S*,3R*,4R*,6R*)-3-methyl-6-((5-(trifluoromethyl)pyridin-2-yl)oxy)-2-azabicyclo[2.2.1]heptan-2-yl)methanone] | 879
CC1C2CC(Oc3ccc(C(F)(F)F)cn3)C(C2)N1C(=O)c1cccc(F)c1-c1ncc(F)cn1 (single isomer, unassigned) [Example 20A, (3-fluoro-2-(5-fluoropyrimidin-2-yl)phenyl)((1R*,3S*,4S*,6S*)-3-methyl-6-((5-(trifluoromethyl)pyridin-2-yl)oxy)-2-azabicyclo[2.2.1]heptan-2-yl)methanone] | > 10000
CC1C2CC(Nc3cnc(C(F)(F)F)cn3)C(C2)N1C(=O)c1ccccc1-n1nccn1 (single isomer, unassigned) [Example 68A, (2-(2H-1,2,3-triazol-2-yl)phenyl)((1R*,3S*,4R*,6S*)-3-methyl-6-((5-(trifluoromethyl)pyrazin-2-yl)amino)-2-azabicyclo[2.2.1]heptan-2-yl)methanone] | > 10000

Results, then the molecule that gave them:

Ki [nM] | Compound
317 | Cc1cnc(C(=O)N2[C@H](C)[C@H]3C[C@@H](Nc4ccc(C(F)(F)F)cn4)[C@@H]2C3)c(-n2nccn2)c1 (relative stereo) [Example 66, (5-methyl-3-(2H-1,2,3-triazol-2-yl)pyridin-2-yl)((1S*,3R*,4S*,6R*)-3-methyl-6-((5-(trifluoromethyl)pyridin-2-yl)amino)-2-azabicyclo[2.2.1]heptan-2-yl)methanone]
195 | Cc1ccc(-n2nccn2)c(C(=O)N2[C@H](C)[C@H]3C[C@@H](Oc4cnc5ccccc5n4)[C@@H]2C3)n1 (relative stereo) [Example 183, (6-methyl-3-(2H-1,2,3-triazol-2-yl)pyridin-2-yl)((1S*,3R*,4R*,6R*)-3-methyl-6-(quinoxalin-2-yloxy)-2-azabicyclo[2.2.1]heptan-2-yl)methanone]
664 | Cc1ccc(-n2nccn2)c(C(=O)N2C(C)C3CC(Nc4cnc(C(F)(F)F)cn4)C2C3)n1 (single isomer, unassigned) [Example 6, (R/S)-(6-methyl-3-(2H-1,2,3-triazol-2-yl)pyridin-2-yl)(3-methyl-6-((5-(trifluoromethyl)pyrazin-2-yl)amino)-2-azabicyclo[2.2.1]heptan-2-yl)methanone]
> 10000 | Cc1ccc(-n2nccn2)c(C(=O)N2C(C)C3CC(Nc4cnc(C(F)(F)F)cn4)C2C3)n1 (single isomer, unassigned) [Example 6A, (6-methyl-3-(2H-1,2,3-triazol-2-yl)pyridin-2-yl)((1R*,3R*,4R*,6S*)-3-methyl-6-((5-(trifluoromethyl)pyrazin-2-yl)amino)-2-azabicyclo[2.2.1]heptan-2-yl)methanone]
154 | Cc1ccc(-n2nccn2)c(C(=O)N2C(C)C3CC(Nc4cnc(C(F)(F)F)cn4)C2C3)n1 (single isomer, unassigned) [Example 6B, (6-methyl-3-(2H-1,2,3-triazol-2-yl)pyridin-2-yl)((1S*,3S*,4S*,6R*)-3-methyl-6-((5-(trifluoromethyl)pyrazin-2-yl)amino)-2-azabicyclo[2.2.1]heptan-2-yl)methanone]
> 10000 | CC1C2CC(Oc3ccc(C(F)(F)F)cn3)C(C2)N1C(=O)c1cc(F)ccc1-c1ncccn1 (single isomer, unassigned) [Example 18A, (5-fluoro-2-(pyrimidin-2-yl)phenyl)((1R*,3S*,4S*,6S*)-3-methyl-6-((5-(trifluoromethyl)pyridin-2-yl)oxy)-2-azabicyclo[2.2.1]heptan-2-yl)methanone]
1890 | CC1C2CC(Oc3ccc(C(F)(F)F)cn3)C(C2)N1C(=O)c1cccc(F)c1-c1ncc(F)cn1 (single isomer, unassigned) [Example 20B, (3-fluoro-2-(5-fluoropyrimidin-2-yl)phenyl)((1S*,3R*,4R*,6R*)-3-methyl-6-((5-(trifluoromethyl)pyridin-2-yl)oxy)-2-azabicyclo[2.2.1]heptan-2-yl)methanone]
